The nature of series [1]: Hygroscopicity study by dynamic vapor sorption (DVS) analysis. Particulars: under 40%, 80%, and 90% relative humidity (RH) at 25 °C, comparing with compound prepared in EXAMPLE 2. It is filed as physicochemical. How it is done:
Hygroscopicity study by dynamic vapor sorption analysis (DVS)
Hygroscopicity study is performed using Surface Measurement Systems DVS-1. The sample is placed on a microbalance in the instrument and the weight change during the sorption/desorption cycle at 25° C. is monitored. One of the sorption/desorption programs consists of a sorption scan from 0 to 95% relative humidity (RH) and a desorption scan from 95 to 10% RH. The other consists of a sorption scan from 40 to 95% RH and desorption scan from 95 to 0% RH, followed by a second sorption scan from 0 to 40% RH. Both programs are carried out at 5% RH increments and the sample is allowed to equilibrate for 360 minutes or until equilibration had been attained at each step. At the end of the DVS experiment the sample is measured by PXRD.

A short description of series [2]: Photostability / storage stability study. It is filed as physicochemical. How it is done:
Photostability samples are stored in open dishes with quartz glass covers and a second set of 25° C./60% RH, and 40° C./75% RH samples which are stored in open round amber glass bottles covered with gauze.

Experimental findings from patent US9499543B2, “Polymorph forms” (RaQualia Pharma Inc., priority 2013, dated 2016) are described below.

In the case of `CN1N=C2CCN(C(=O)[C@@H](COCc3ccccc3)NC(=O)C(C)(C)N)C[C@@]2(Cc2ccccc2)C1=O.O=C(O)C(O)C(O)C(=O)O` [Polymorph Form I, 2-amino-N-[2-(3a-(R)-benzyl-2-methyl-3-oxo-2,3,3a,4,6,7-hexahydro-pyrazolo[4,3-c]pyridin-5-yl)-1-(R)-benzyloxymethyl-2-oxo-ethyl]-isobutyramide L-tartrate Polymorph Form I], the moisture gain in series [1] was under 2%. In addition, the loss in potency result in series [2] (any of the stability samples over 3 months) is listed as “No significant loss”. Further, the “changes in the appearance, the X-ray diffraction patterns, and IR spectra” value in series [2] (storage over 3 months, photostability, 25°C/60% RH and 40°C/75% RH samples) is reported as “no significant changes”.
